In patent US20110118337A1, “Method of Using Compositions Comprising MIR-192 and/or MIR-215 for the Treatment of Cancer” (Merck Sharp & Dohme Corp., priority 2008, published 2011):
d = 2'-deoxy (DNA); r = 2'-OH (RNA)

Experiments:
TOV21G cells = assay: miRNA and p21 expression by quantitative RT-PCR after adriamycin treatment; format: cell-based
Description: (§1) TOV21G cells and A549 cells were obtained from the American Type Culture Collection (ATCC). TOV21G p53 and A549 p53 matched pair cell lines were created by stably infecting TOV21G and A549 cells with a lentivirus encoding either H1-term or p53 shRNA. Cells were cultured in Dulbecco's Modified Eagles Medium, supplemented with 10% fetal bovine serum, streptomycin, penicillin and L-glutamine.
(§2) MicroRNA expression was measured in the p53 matched cell lines (p53+/+ or p53−/− sh) either untreated or following treatment with various doses of the DNA damaging agent adriamycin (0, 10, 50 and 200 nM adriamycin). Forty-eight hours post treatment, RNA was harvested and the expression levels of miR-34a, miR-192, miR-215 and p21 were determined by quantitative RT-PCR with Taqman analysis carried out as described in Raymond C. K. et al., RNA 11: 1737-1744 (2005).

A549 cells = assay: as above; format: cell-based
Description: as §1, §2

HCT116DICER^ex5 cells [1] = assay: Transfection of siRNA pools (G1 or G2 gene set) at suboptimal levels, cell cycle FACS analysis (nocodazole or aphidicolin); format: cell-based, human; settings: 100 nM, 66 hours post transfection
Description: […] At 48 hours post-transfection into HCT116DICER^ex5 cells, the cells were treated with nocodazole for an additional 18 hours prior to FACS analysis.
[…] At 48 hours post-transfection into HCT116DICER^ex5 cells, the cells were treated with aphidicolin for an additional 18 hours prior to FACS analysis.

HCT116DICER^ex5 cells [2] = assay: Cell cycle FACS analysis of siRNAs against top G1 and G2 arrest genes (nocodazole or aphidicolin); format: cell-based, human; settings: 100 nM siRNA
Description: Of the 62 genes shown above in TABLE 6, the 10 genes whose targeting by siRNA caused the largest percentage of cells to arrest in G1, listed below in TABLE 7, were transfected into HCT116DICER^ex5 cells in another experiment as follows.
HCT116DICER^ex5 cells were transfected with […] miR-192 or 100 nM siRNA against luciferase, or 100 nM siRNA (one siRNA duplex of the pool of three) against the putative miR-192 target of interest, as indicated in TABLES 7 and 8. At 48 hours post transfection, cells were treated with nocodazole or aphicicolin for an additional 18 hours prior to FACS analysis. The results for the nocodazole treated cells (% of cells in G1) are provided in TABLE 7, and graphically illustrated in FIG. 3A. The results for the aphidicolin treated cells (% of cells in G2) are provided in TABLE 8 and graphically illustrated in FIG. 3B.

HCT116DICER^ex5 cells [3] = assay: Cell cycle FACS screen of pools of three siRNAs per gene (G1 after nocodazole, G2/M after aphidicolin); format: cell-based, human; settings: pools of 3 siRNAs/gene at 100 nM final, FACS 66 hours post-transfection, average of two experiments
Text: To identify targets whose modulation influences the cell cycle arrest phenotype observed with miR-192 expression, the 62 candidate genes identified as described in Example 2 and shown in TABLE 3 were silenced individually by transfecting a pool of 3 gene-specific siRNA duplexes per gene (each directed to a different region of the gene) into HCT116DICER^ex5 cells. The siRNA duplex sequences (3 duplexes per gene) used to target each of the 62 genes are shown below in TABLE 5. The siRNA duplex oligonucleotides were obtained from Sigma-Genesys, as described in Linsley, P. S. et al., Mol Cell Biol 27:2240-2252 (2007).
HCT116DICER^ex5 cells were transiently transfected with pools of three different siRNA duplexes per gene at a 100 nM final concentration using Lipofectamine RNAiMax (Invitrogen), according to the manufacturer's instructions. At 48 hours post transfection, cells were left untreated, treated with nocodazole (100 ng/mL, Sigma-Aldrich), or treated with aphidicolin (2 μg/mL, Sigma-Aldrich) for an additional 18 hours before harvesting. The cells transfected with the siRNA pools were then screened by FACS analysis as described in Example 3 for the percentage of cells arrested in G1 or G2/M as compared to the negative siRNA luciferase control.
The siRNA pools tested in this screen were ranked according to the percentage of cells arrested in G1 or G2/M following transfection, as compared with a negative control siRNA targeting luciferase. To avoid being misled by possible RNAi off-target effects, the siRNA pools were deconvoluted to identify genes for which at least 2 different siRNA duplexes from the pool caused the cell cycle arrest phenotype (data not shown).
TABLE 6 summarizes the data obtained 66 hours post-transfection by FACS analysis showing the cell cycle distribution of the HCT116DICER^ex5 cells transfected with siRNA pools of 3 siRNAs/gene. Each pool was analyzed in two separate experiments, and the average percentage of the cells trapped in G1 (following nocodazole treatment), or G2/M (following aphidicolin treatment) are shown in TABLE 6.

[4] = system: CDC7, LMNB2, MAD2L1 and CUL5; assay: Western blot analysis; format: cell-based, human; settings: HCT116DICER^ex5 cells, 10 nM, data not shown
Description: HCT116DICER^ex5 cells were transfected with 10 nM siRNA against luciferase or 10 nM miR-192 or 10 nM miR-192 mutant, and lysates were prepared at 28 hours or 48 hours post-transfection. For immunoblotting, 30 μg of whole cell lysate extracted in a modified RIPA buffer (150 mM NaCl, 50 mM Tris pH 7.4, 1 mM EDTA, 1% NP-40, 0.1% SDS) was used per sample. CDC7, LMNB2, MAD2L1 and CUL5 were detected by Western blot using anti-CDC7 (sc-56275, Santa Cruz Biotechnology Inc.), anti-LMNB2 (MAB3536, Millipore), anti-MAD2L1 (ab55452, Abcam) and anti-CUL5 (Invitrogen) antibodies, and protein levels were compared to the level of β-actin expression as detected by an anti-β-actin antibody (Abcam).

[5] = system: 3′ UTRs of the 18 candidate genes in U-2-OS cells; assay: 3′ UTR luciferase reporter analysis; format: cell-based; settings: 10 nM, 24 hours post-transfection
Text: In order to test whether miR-192 is regulating these genes through seed sequence-specific recognition of binding sites within their 3' UTRs, a series of reporter constructs were generated containing the entire natural 3' UTRs of the 18 candidate genes (BCL2, CDC7, CUL5, DLG5, DTL, ERCC3, HOXA10, HRH1, LMNB2, MAD2L1, MCM10, MIS12, MPHOSPH1, PIM1, PRPF38A, […]1, SEPT10 and SMARCB1) inserted downstream of a luciferase open reading frame (SwitchGear Genomics) to create 3' UTR luciferase reporter plasmids. U-2-OS cells were transfected first with 10 nM miR-192 or 10 nM miR-192 mutant, and subsequently transfected 4 to 6 hours later with these 3' UTR reporter plasmids. A renilla luciferase expression plasmid from dual luciferase system (Promega) was used as an internal control. Luciferase activity was measured at 24 hours post-transfection, and quantified relative to renilla luciferase activity.

HCT116DICER^ex5 cells [6] = assay: Cell cycle distribution by propidium iodide FACS after miR-192 duplex transfection (untreated, nocodazole or aphidicolin); format: cell-based, human; settings: for % Cells with 2N (G1/S) / % Cells with 4N (G2/M): 10 nM duplex, 66 hours after transfection
Description: At 48 hours post transfection, cells were left untreated, treated with nocodazole (100 ng/mL, Sigma-Aldrich), or treated with aphidicolin (2 μg/mL, Sigma-Aldrich) for an additional 18 hours before harvesting. The cells were then trypsinized, collected, fixed and stained with a propidium iodide solution. BrdU-labeling was performed according to the manufacturer's instructions (BD-Pharmigen). For phospho-histone H3 analysis, cells were fixed and permeabilized with IPF buffer (100 mM PIPES pH 6.8, 10 mM EDTA, 1 mM MgCl2, 0.2% Triton X-100, 4% formaldehyde) and stained with propidium iodide and anti-phospho-histone H3 antibody conjugated to Alexa-488 (Cell Signaling Technology). The cells were analyzed using a FACSCalibur flow cytometer (Beacton Dickinson) and FlowJo software (Tree Star, Inc.).

Compound: COc1cccc2c1C(=O)c1c(O)c3c(c(O)c1C2=O)C[C@@](O)(C(=O)CO)C[C@@H]3O[C@H]1C[C@H](N)[C@H](O)[C@H](C)O1 [adriamycin]
- miR-192, miR-215 and miR-34a expression (TOV21G cells; TOV21G cells, adriamycin 10, 50 or 200 nM, 48 hours post treatment): up-regulation
- expression of miR-192 and miR-215 (TOV21G cells; p53 deficient TOV21G cells, adriamycin 10, 50 or 200 nM): not
- p21 expression (TOV21G cells; p53 knockdown TOV21G cells): lack of p21 induction
- expression of miR-192 and miR-215 (TOV21G cells; wild type (p53+/+) TOV21G cells, adriamycin 10, 50 or 200 nM): upregulated in a dose dependent manner
- miR-192, miR-215 and miR-34a expression (A549 cells; A549 cells, adriamycin 10, 50 or 200 nM, 48 hours post treatment): up-regulation
- expression of miR-192 and miR-215 (A549 cells; p53 deficient A549 cells, adriamycin 10, 50 or 200 nM): not
- p21 expression (A549 cells; p53 knockdown A549 cells): lack of p21 induction
- expression of miR-192 and miR-215 (A549 cells; wild type (p53+/+) A549 cells, adriamycin 10, 50 or 200 nM): upregulated in a dose dependent manner

Compound: Luc siRNA: Control siRNA targeting luciferase, SEQ ID NOS: 11/12 (chain 1 UCGAAGUAUUCCGCGUACGTT; chain 2 CGUACGCGGAAUACUUCGATT; sugars from the 5' end r19 d2, backbone not given here) [reference compound]
- % G1 (HCT116DICER^ex5 cells [1]; after aphidicolin treatment): 66.3%
- % G2 (HCT116DICER^ex5 cells [1]; after aphidicolin treatment): 15.6%
- % G1 (HCT116DICER^ex5 cells [1]; nocodazole): 11.7%
- % G2 (HCT116DICER^ex5 cells [1]; nocodazole): 83.8%
- % Cells in G2 (HCT116DICER^ex5 cells [2]; aphidicolin 18 hours from 48 hours post transfection): 19.2%
- % Cells in G1 (HCT116DICER^ex5 cells [2]; nocodazole 18 hours from 48 hours post transfection): 18.5%
- % G2 (Avg), Aphidicholin+ (HCT116DICER^ex5 cells [3]; aphidicolin 2 μg/mL 18 h): 18.9%
- % G1 (Avg), Nocodazole+ (HCT116DICER^ex5 cells [3]; nocodazole 100 ng/mL 18 h): 13.8%

Compound: miR-192 mutant: Seed region mutant miR-192 duplex, guide CUGCACUAUGAAUUGACAGCC (SEQ ID NO:8), passenger SEQ ID NO:9 (sense CUGUCAAUUCAUAGUGCUGAU; listed as RNA, chemistry not given here) [reference compound]
- protein level [4]: not
- regulation of 3′ UTR luciferase reporters of the 18 genes [5]: not
- % Cells with 2N (G1/S) (HCT116DICER^ex5 cells [6]; aphidicolin 2 μg/mL 18 hours): 66.5%
- % Cells with 4N (G2/M) (HCT116DICER^ex5 cells [6]; aphidicolin 2 μg/mL 18 hours): 16.1%
- % Cells with 2N (G1/S) (HCT116DICER^ex5 cells [6]; nocodazole 100 ng/mL 18 hours): 17%
- % Cells with 4N (G2/M) (HCT116DICER^ex5 cells [6]; nocodazole 100 ng/mL 18 hours): 66.3%
- accumulation in the G2/M phase (HCT116DICER^ex5 cells [6]; treated with aphidicolin): did not
- % Cells with 2N (G1/S) (HCT116DICER^ex5 cells [6]; untreated): 49.9%
- % Cells with 4N (G2/M) (HCT116DICER^ex5 cells [6]; untreated): 30.8%
